Experimental data reported in patent publication US20260061085A1, “CYCLIC PEPTIDE AND PREPARATION METHOD THEREFOR, AND COMPLEX COMPRISING SAME AND USE THEREOF” (HEXIN (SUZHOU) PHARMACEUTICAL TECHNOLOGY CO., LTD., priority 2022, published 2026).
Square brackets hold non-standard residues; d marks the D form. Peptide text beside a SMILES is read from it. NMeN = CN[C@@H](CC(N)=O)C(=O)O; Orn = NCCC[C@H](N)C(=O)O; Dab = NCC[C@H](N)C(=O)O; Sar = CNCC(=O)O

Legend:
[1] = Stability by in vitro constant temperature (37° C.) incubation in mouse plasma, LC-MS/MS; format: in vitro ADME
Procedure: (§1) The experiment was carried out by using an in vitro constant temperature (37° C.) incubation method to study the stability of the cyclic peptide APN21 of Example 21 and the cyclic peptide KE5 of Comparative Example 1 in mouse plasma or PBS (1.0 μg/mL). The two cyclic peptides were dissolved in 1 mL of mouse […], respectively, and incubated at 37° C. for 0 h, 0.5 h, 1 h, 4 h, 24 h, and 48 h, and a percentage of drug remaining was then measured and determined. PBS was used as a negative control group. Peak areas of the drug and an internal standard were measured using an LC-MS/MS method, and ratios of the peaks were used instead of the drug concentration for calculation.

[2] = Stability by in vitro constant temperature (37° C.) incubation in PBS, LC-MS/MS; format: physicochemical
Procedure: as §1

[3] = tested on: HT-1080 tumor-bearing mice; assay: Small-animal PET/CT imaging of HT-1080 tumor-bearing mice with CD13 blocking; format: in vivo; conditions: co-injected with unlabeled NGR peptide 15 mg/kg, tail vein, 0.5, 1 and 2 hours after injection, versus unblocked APN21 Group
Procedure: HT-1080 cells were taken from normal NCr nude mice (18-25 g, 4-6 weeks old, n=3), and 2λ10^6 cells were implanted subcutaneously in right shoulders of mice in a mixture of 200 μL phosphate buffer and matrix gel (v/v, 1/1). […] PET/CT and image analysis were performed using a small-animal NovclMedcal PET/CT scanner (Novel Medical Equipment Ltd., Beijing). Maximum tangential and radial half-widths of the scanner in a center of field of view were 1.5 mm, and at an edge of the field of view were 1.8 mm. […] Static PET/CT images were obtained for 15 min at 0.5, 1, and 2 hours after intravenous injection. […] Static PET/CT images were obtained for 15 min at 0.5, 1, and 2 hours after intravenous injection. […] Static PET/CT images were obtained for 15 min at 0.5, 1, and 2 hours after intravenous injection. […] […] PET and CT images were acquired using NMSoft workstation software (Novel Medical Equipment Ltd., Beijing), and data were given as a percentage of injected dose per gram of tissue or organ (ID/g), and were determined through decay correction for each sample (standardized to a known weight of the injected dose).

HT-1080 cells = assay: Relative cell uptake of Cy3 fluorescent peptides by HT-1080 cells; format: cell-based, human; conditions: Cy3 fluorescent peptide, 37° C. 30 min, multiple of KE5-Cy3 uptake taken as 1.00
Procedure: The binding affinity of the polypeptides in the examples and comparative examples to an HT-1080 cell line was identified through cell uptake studies.
The human fibrosarcoma cell line HT-1080 was cultured in Dulbecco's Modified Eagle Medium (DMEM) (Gibco) mixed with 10% sterile filtered fetal bovine serum (FBS) and 1% penicillin-streptomycin antibiotic solution. The cell culture was maintained in a controlled environment at 37° C. and 5% CO2, and subculture was performed every 3-4 days. 24 hours prior to the experiment, cells were seeded in a 96-well plate (5000 cells per well) and cultured overnight until the cells adhered to a wall. Before the experiment, cells were washed twice with […] of phosphate-buffered saline (PBS) to remove a growth medium.
Purification is performed through HPLC.
HT-1080 cells were treated with KE5-Cy3 fluorescent peptide of Comparative Example 1.
(§2) After incubation at 37° C. for 30 min, the cells were washed twice with PBS, an intracellular fluorescence intensity was measured using a fluorescence microplate reader (with an […]) to evaluate the uptake of KE5-Cy3 fluorescent peptide by HT-1080 cells.
(§3) 10 μL of CCK-8 were added to each group of cells and incubated for 4 h, the cells were then read using a microplate reader (with a wavelength of 490 nm), and errors in fluorescence intensity of each group of cells caused by difference in a number of cells was corrected by CCK-8.
Each group was subjected to the above operation three times to determine an optimal concentration for the uptake of KE5-Cy3 fluorescent peptide by HT-1080 cells.
(§4) HT-1080 cells were treated with the APN-Cy3 fluorescent peptide of each of the Examples, wherein a concentration of each APN-Cy3 fluorescent peptide was an optimal concentration determined by KE5-Cy3 fluorescent peptides of Comparative Example 1 according to the uptake by the HT-1080 cells.
as §2, with “APN-Cy3” for “KE5-Cy3”
A relative cell uptake (RCU) for each APN-Cy3 fluorescent peptide relative to the KE5-Cy3 fluorescent peptide was calculated using the following formula: […]

[4] = target: T1, Aminopeptidase N (APN, also known as CD13) (human, UniProt P15144 2-967); assay: Cy3 fluorescence uptake by HT-1080 cells, 37 C 30 min, microplate reader, CCK-8 corrected, relative to KE5-Cy3
T1 construct: whole, on cells; The assay itself used HT-1080 cells (endogenous expression, not transfected); also called CD13 protein; CD13 receptor
Procedure: as §4
as §2, with “APN-Cy3” for “KE5-Cy3”
as §3

[5] = 0.5 h, read-out: percentage of drug remaining
[6] = 1 h, read-out: percentage of drug remaining
[7] = 4 h, read-out: percentage of drug remaining
[8] = 24 h, read-out: percentage of drug remaining
[9] = 48 h, read-out: percentage of drug remaining

T1 sequence (P15144 2-967): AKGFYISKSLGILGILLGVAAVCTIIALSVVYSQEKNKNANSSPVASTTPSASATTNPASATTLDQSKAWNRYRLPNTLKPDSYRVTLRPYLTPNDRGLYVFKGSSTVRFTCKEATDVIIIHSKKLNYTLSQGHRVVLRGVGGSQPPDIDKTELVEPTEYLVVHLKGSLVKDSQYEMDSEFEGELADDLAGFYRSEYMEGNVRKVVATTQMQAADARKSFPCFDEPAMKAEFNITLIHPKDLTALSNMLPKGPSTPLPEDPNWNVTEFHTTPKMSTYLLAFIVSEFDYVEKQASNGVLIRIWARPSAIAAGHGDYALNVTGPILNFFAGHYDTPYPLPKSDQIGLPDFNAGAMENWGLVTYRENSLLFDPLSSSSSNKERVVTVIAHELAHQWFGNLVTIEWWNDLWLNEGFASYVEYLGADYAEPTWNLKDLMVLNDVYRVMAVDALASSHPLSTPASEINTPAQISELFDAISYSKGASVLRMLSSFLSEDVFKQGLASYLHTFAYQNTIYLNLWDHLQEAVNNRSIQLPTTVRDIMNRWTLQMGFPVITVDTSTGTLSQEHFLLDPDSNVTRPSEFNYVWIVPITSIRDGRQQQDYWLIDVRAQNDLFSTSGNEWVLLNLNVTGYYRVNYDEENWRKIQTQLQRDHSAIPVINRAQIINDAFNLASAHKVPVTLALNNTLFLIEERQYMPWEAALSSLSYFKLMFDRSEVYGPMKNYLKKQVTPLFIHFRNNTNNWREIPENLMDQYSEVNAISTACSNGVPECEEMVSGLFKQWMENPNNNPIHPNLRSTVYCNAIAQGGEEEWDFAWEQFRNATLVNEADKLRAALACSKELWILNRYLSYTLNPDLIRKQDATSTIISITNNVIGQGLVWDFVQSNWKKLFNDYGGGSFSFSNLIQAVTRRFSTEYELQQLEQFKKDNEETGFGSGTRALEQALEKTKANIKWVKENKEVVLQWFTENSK

For `N=C(N)NCCC[C@@H]1NC(=O)CNC(=O)[C@H](CC(N)=O)NC(=O)[C@H](CCCCN)NC(=O)[C@H](CCC(=O)O)NC1=O` [Comparative Example 1, cyclo(NGREK), reference compound] (cyclo(EKNGR)), the “percentage of drug remaining” value ([1]; 0 h) was 100%, the remaining at 0.5 h, 1 μg/mL [1, 5] was 94.8% and the remaining at 1 h, 1 μg/mL [1, 6] was 89.4%. For the same molecule, the remaining at 4 h, 1 μg/mL [1, 7] was 80.2%, the remaining at 24 h, 1 μg/mL [1, 8] was 39.8% and the remaining at 48 h, 1 μg/mL [1, 9] was 12.4%. The “percentage of drug remaining” value ([2]; 0 h) was 100%, the remaining at 0.5 h, 1 μg/mL [2, 5] was 99.1% and the remaining at 1 h, 1 μg/mL [2, 6] was 96.6%. The remaining at 4 h, 1 μg/mL [2, 7] was 91.4%, the remaining at 24 h, 1 μg/mL [2, 8] was 73.4% and the remaining at 48 h, 1 μg/mL [2, 9] was 42.7%.

In the case of “^68Ga-APN21-Bn-SCN-NOTA: ^68Ga-labelled conjugate of cyclic peptide APN21 (Example 21) with NOTA-Bn-SCN chelator (cyclo(N[Sar]RTKY); not fully specified (residue 5); also: 68Ga-NOTA-Bn-SCN chelator conjugated, site not given here)”, the “PET/CT signal intensity (tumor uptake) in APN21-Blocking Group” value [3] is reported as “significantly weaker than that of the unblocked APN21 group”.

For “cyclo(NGRDK) (cyclic; circular) [Example 1]”, the “RCU (relative cell uptake)” value (HT-1080 cells) was 0.65.

In the case of “cyclo(NGRTCE) (cyclic; circular) [Example 10]”, the “RCU (relative cell uptake)” value (HT-1080 cells) is reported as 0.77.

In the case of “cyclo(NGRTCF) (cyclic; circular) [Example 12]”, the “RCU (relative cell uptake)” value (HT-1080 cells) is reported as 0.82.

For “cyclo(NGRTCG) (cyclic; circular) [Example 13]”, the “RCU (relative cell uptake)” value (HT-1080 cells) was 0.49.

With “cyclo(NGRTCV) (cyclic; circular) [Example 11]” the “RCU (relative cell uptake)” value (HT-1080 cells) was 0.92.

For “cyclo(NGRTCY) (cyclic; circular) [Example 14]”, the “RCU (relative cell uptake)” value (HT-1080 cells) was 1.05.

For “cyclo(NGRTKF) (cyclic; circular) [Example 7]”, the “RCU (relative cell uptake)” value (HT-1080 cells) was 0.56.

For “cyclo(NGRTKG) (cyclic; circular) [Example 8]”, the “RCU (relative cell uptake)” value (HT-1080 cells) was 1.14.

In the case of “cyclo(NGRTKf) (cyclo(NGRTK[dF]); SMILES C[C@@H](O)[C@@H]1NC(=O)[C@H](CCCNC(=N)N)NC(=O)CNC(=O)[C@H](CC(N)=O)NC(=O)[C@@H](Cc2ccccc2)NC(=O)[C@H](CCCCN)NC1=O) [Example 17]”, the “RCU (relative cell uptake)” value (HT-1080 cells) is reported as 0.49.

With “cyclo(NSarRTDabY) (cyclo(N[Sar]RT[Dab]Y); SMILES C[C@@H](O)[C@@H]1NC(=O)[C@H](CCCNC(=N)N)NC(=O)CN(C)C(=O)[C@H](CC(N)=O)NC(=O)[C@H](Cc2ccc(O)cc2)NC(=O)[C@H](CCN)NC1=O) [Example 24]” the “RCU (relative cell uptake)” value (HT-1080 cells) was 0.57.

In the case of “cyclo(NSarRTOrnY) (cyclo(N[Sar]RT[Orn]Y); SMILES C[C@@H](O)[C@@H]1NC(=O)[C@H](CCCNC(=N)N)NC(=O)CN(C)C(=O)[C@H](CC(N)=O)NC(=O)[C@H](Cc2ccc(O)cc2)NC(=O)[C@H](CCCN)NC1=O) [Example 23]”, the “RCU (relative cell uptake)” value (HT-1080 cells) is reported as 1.20.

For “cyclo(NSarRTcY) (cyclo(N[Sar]RT[dC]Y); SMILES C[C@@H](O)[C@@H]1NC(=O)[C@H](CCCNC(=N)N)NC(=O)CN(C)C(=O)[C@H](CC(N)=O)NC(=O)[C@H](Cc2ccc(O)cc2)NC(=O)[C@@H](CS)NC1=O) [Example 25]”, the “RCU (relative cell uptake)” value (HT-1080 cells) was 0.72.

For “cyclo(NmeGRTDabY) (cyclo([NMeN]GRT[Dab]Y); SMILES C[C@@H](O)[C@@H]1NC(=O)[C@H](CCCNC(=N)N)NC(=O)CNC(=O)[C@H](CC(N)=O)N(C)C(=O)[C@H](Cc2ccc(O)cc2)NC(=O)[C@H](CCN)NC1=O) [Example 26]”, the “RCU (relative cell uptake)” value (HT-1080 cells) was 0.41.

In the case of “cyclo(NmeGRTKY) (cyclo([NMeN]GRTKY); SMILES C[C@@H](O)[C@@H]1NC(=O)[C@H](CCCNC(=N)N)NC(=O)CNC(=O)[C@H](CC(N)=O)N(C)C(=O)[C@H](Cc2ccc(O)cc2)NC(=O)[C@H](CCCCN)NC1=O) [Example 20]”, the “RCU (relative cell uptake)” value (HT-1080 cells) is reported as 0.78.

For “cyclo(NmeGRTOrnY) (cyclo([NMeN]GRT[Orn]Y); SMILES C[C@@H](O)[C@@H]1NC(=O)[C@H](CCCNC(=N)N)NC(=O)CNC(=O)[C@H](CC(N)=O)N(C)C(=O)[C@H](Cc2ccc(O)cc2)NC(=O)[C@H](CCCN)NC1=O) [Example 27]”, the “RCU (relative cell uptake)” value (HT-1080 cells) was 0.37.

In the case of “cyclo(NmeGRTcY) (cyclo([NMeN]GRT[dC]Y)) [Example 28]”, the “RCU (relative cell uptake)” value (HT-1080 cells) is reported as 0.62.

B1: APN21-Cy3 fluorescent peptide (Example 21) (peptide)
peptide: cyclo(N[Sar]RTKY)
modifications: not fully specified (residue 5); also: Cy3 dye attached via Cy3-NHS, site not given here
notes: also called cyclo(NSarRTKY)
For B1, the “RCU (relative cell uptake, KE5-Cy3 = 1.00)” value [4] was 5.68 fold of KE5-Cy3.
